Earlier results in patent US8821924B2, “Rhein or diacerein compositions” (Wockhardt Ltd., priority 2007, dated 2014).

Conditions: water, alcohols, acetone, dichloromethane and chloroform

solubility in solvents: practically insoluble
Structure (SMILES): CC(=O)Oc1cccc2c1C(=O)c1c(OC(C)=O)cc(C(=O)O)cc1C2=O [Diacerein, 4,5-bis(acetyloxy)9,10-dihydro-4,5-dihydroxy-9,10-dioxo-2-anthracenecarboxylic acid]
